# Test results published in ChEMBL document CHEMBL1201862, “PubChem BioAssay data set” (2004).
# The source made the active and inactive calls.
# Legend:
# [1] = molecular target: G-protein coupled receptor 55 (Homo sapiens, UniProt Q9Y2T6); test: GPR55 agonists via beta-arrestin recruitment, primary screen, imaging, U2OS cells, beta-arrestin-GFP redistribution (AID 1961); type: functional
# Vero = test: host cell cytotoxicity of antiviral hits, dose response, cytotoxicity control for West Nile virus antiviral project, secondary assay (AID 1650); type: functional; details: Chlorocebus sabaeus
# [2] = inhibitors of intracellular T. cruzi replication, confirmation, NIH3T3 host cells, beta-gal luminescence (AID 2044); type: functional, cell-based;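 note: intracellular parasites grown in NIH/3T3 mouse fibroblasts as host cells; luminescent beta-galactosidase reporter signal from transgenic T. cruzi replicating inside host cells; inhibitors lower the luminescence signal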
# [3] = molecular target: Heat shock protein HSP 90-alpha (Homo sapiens, UniProt P07900); type: functional, organism-based
# [4] = cytotoxicity toward NIH3T3 fibroblasts, dose response, counter-screen, cell-based, ATP luminescence, mouse fibroblasts (AID 2010); type: functional;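 note: cells exposed to compound for about 90 hours before reading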
# Cytochrome P450 2C19 [5] = molecular target: T1, Cytochrome P450 2C19 (Homo sapiens, UniProt P33261); test: qHTS Assay for Inhibitors and Substrates of Cytochrome P450 2C19. [Related pubchem assays: 410 ]; type: ADME; details: read-out: Potency
# Cytochrome P450 2C9 = Cytochrome P450 2C9 (Homo sapiens, UniProt P11712)
# [6] = molecular target: Photoreceptor-specific nuclear receptor (Homo sapiens, UniProt Q9Y5X4); test: NR2E3 inverse agonists, dose response, biochemical, TR-FRET (AID 463256); type: functional
# [7] = molecular target: Peroxisome proliferator-activated receptor gamma/Nuclear receptor corepressor 2 (Homo sapiens, UniProt P37231+Q9Y618); test: Counterscreen for NR2E3 inverse agonists: TR-FRET-based biochemical high throughput dose response assay to identify inverse agonists of the interaction between peroxisome proliferator-activated receptor gamma (PPARg) and nuclear receptor co-repressor 2 (NCOR2).; type: functional
# [8] = molecular target: ADP-ribosylation factor GTPase-activating protein 1 (Rattus norvegicus, UniProt Q62848); test: Fluorescence polarization-based biochemical high throughput dose response screening assay to identify inhibitors of ADP-ribosylation factor GTPase activating protein 1 (ARFGAP1).; type: functional
# Cytochrome P450 2C19 [9] = molecular target: T1, Cytochrome P450 2C19; test: Cytochrome panel assay with activity outcomes. Panel member name: p450-cyp2c19 Compounds with AC50 equal or less than 10 uM are considered active; type: functional
# Large T antigen = Large T antigen (Simian virus 40, UniProt P03070); type: functional, Betapolyomavirus macacae;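 note: Confirmatory-stage PubChem screen for compounds that inhibit SV40 T antigen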
# [10] = molecular target: T2, Zinc finger protein mex-5 (Caenorhabditis elegans, UniProt Q9XUB2); test: MEX-5/TCR-2 RNA interaction inhibitors, dose response, biochemical, C. elegans, fluorescence polarization (AID 1960)
# T2 sequence (Q9XUB2 whole entry): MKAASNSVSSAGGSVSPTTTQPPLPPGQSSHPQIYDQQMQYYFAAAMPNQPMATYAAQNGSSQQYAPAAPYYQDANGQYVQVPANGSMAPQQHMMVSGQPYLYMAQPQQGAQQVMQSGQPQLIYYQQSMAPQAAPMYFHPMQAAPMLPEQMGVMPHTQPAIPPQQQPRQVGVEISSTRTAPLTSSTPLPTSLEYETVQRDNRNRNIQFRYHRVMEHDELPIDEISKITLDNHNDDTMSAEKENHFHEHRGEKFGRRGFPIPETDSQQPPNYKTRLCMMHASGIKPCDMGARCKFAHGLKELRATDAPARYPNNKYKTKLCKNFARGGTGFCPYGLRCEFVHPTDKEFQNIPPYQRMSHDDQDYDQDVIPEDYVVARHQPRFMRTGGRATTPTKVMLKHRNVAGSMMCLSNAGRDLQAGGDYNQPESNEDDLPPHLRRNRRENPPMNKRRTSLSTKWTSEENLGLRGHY
# [11] = molecular target: T3, Heat shock factor protein 1 (Mus musculus, UniProt P38532); test: HSF1 potentiators in luciferase reporter cells, confirmation, cell-based, NIH3T3, luminescence, dose retest (AID 435004); type: functional;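 note: stress induced by proteasome inhibitor MG132 added 30 min after compound; luciferase reporter driven by HSF1 response element in NIH3T3 cells; actives raise luminescence as potentiators of the MG132 stress response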
# T3 sequence (P38532 whole entry): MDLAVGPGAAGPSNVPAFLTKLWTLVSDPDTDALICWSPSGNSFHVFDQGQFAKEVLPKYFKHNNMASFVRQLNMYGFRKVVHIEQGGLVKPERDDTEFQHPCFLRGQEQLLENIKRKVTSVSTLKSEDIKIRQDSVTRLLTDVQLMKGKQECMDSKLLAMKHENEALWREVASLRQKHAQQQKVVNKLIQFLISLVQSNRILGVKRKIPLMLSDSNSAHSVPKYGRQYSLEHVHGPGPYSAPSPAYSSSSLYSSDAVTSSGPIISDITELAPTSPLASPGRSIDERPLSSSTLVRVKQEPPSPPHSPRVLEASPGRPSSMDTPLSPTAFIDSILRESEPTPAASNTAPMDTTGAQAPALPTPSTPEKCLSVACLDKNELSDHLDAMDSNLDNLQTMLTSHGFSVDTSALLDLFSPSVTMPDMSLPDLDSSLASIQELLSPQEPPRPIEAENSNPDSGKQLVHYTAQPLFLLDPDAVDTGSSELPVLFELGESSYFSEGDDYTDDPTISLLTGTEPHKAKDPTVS
# [12] = cytotoxicity in HPDE-C7 cells, cell-based, fluorescence, HTS (AID 430); type: functional; details: Homo sapiens
# [13] = molecular target: Glucose-6-phosphate 1-dehydrogenase (Homo sapiens, UniProt P11413); test: human G6PD enzyme inhibitors, dose response, selectivity assay for P. falciparum G6PD inhibitor project, biochemical, fluorescence (AID 504792); type: functional
# [14] = cytotoxicity in KRAS-transformed pancreatic duct cells, primary screen, cell-based, fluorescence, HTS (AID 431); type: functional; details: Homo sapiens;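 note: cell line used: HPDE-C7K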
# [15] = molecular target: T4, RNA-binding protein pos-1 (Caenorhabditis elegans, UniProt G5EF15); test: inhibitors of POS-1/mex-3 RNA binding, dose response, biochemical, fluorescence polarization (AID 1964);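 note: purified POS-1 fused to maltose binding protein made in E. coli; potency of compounds blocking POS-1 binding to fluorescent RNA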
# T4 sequence (G5EF15 whole entry): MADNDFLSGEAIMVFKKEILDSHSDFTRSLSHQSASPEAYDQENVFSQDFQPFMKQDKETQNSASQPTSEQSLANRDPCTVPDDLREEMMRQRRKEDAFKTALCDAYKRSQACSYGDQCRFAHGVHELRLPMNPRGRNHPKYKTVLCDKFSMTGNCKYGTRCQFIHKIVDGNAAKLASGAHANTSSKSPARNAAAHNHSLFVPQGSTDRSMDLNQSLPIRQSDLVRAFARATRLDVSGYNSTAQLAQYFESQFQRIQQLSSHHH
# 14-3-3 protein gamma = 14-3-3 protein gamma (Homo sapiens, UniProt P61981); test: modulators of 14-3-3 gamma client binding – dose response (AID 711); type: functional
# Estrogen receptor = molecular target: T5, Estrogen receptor (Homo sapiens, UniProt P03372);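 note: potency for inhibiting coactivator peptide recruitment to the receptor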
# T5 sequence (P03372 whole entry): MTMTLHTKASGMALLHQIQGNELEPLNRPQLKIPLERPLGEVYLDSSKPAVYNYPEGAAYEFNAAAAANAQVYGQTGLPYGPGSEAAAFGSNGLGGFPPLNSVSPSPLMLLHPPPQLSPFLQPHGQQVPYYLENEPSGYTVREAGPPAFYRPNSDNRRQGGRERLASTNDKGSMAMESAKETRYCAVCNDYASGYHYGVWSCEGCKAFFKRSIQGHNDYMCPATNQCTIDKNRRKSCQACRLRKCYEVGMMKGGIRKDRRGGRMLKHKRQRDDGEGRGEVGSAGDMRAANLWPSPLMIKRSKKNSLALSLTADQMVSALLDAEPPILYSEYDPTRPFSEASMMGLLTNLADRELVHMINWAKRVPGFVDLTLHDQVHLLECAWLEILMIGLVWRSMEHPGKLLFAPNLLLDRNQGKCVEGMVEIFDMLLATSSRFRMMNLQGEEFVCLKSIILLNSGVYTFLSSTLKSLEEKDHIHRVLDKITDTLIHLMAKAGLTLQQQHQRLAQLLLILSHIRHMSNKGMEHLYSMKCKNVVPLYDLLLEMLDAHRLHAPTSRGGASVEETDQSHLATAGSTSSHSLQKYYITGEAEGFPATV
# [16] = molecular target: Transitional endoplasmic reticulum ATPase (Homo sapiens, UniProt P55072, C522A); test: Luminescence counterscreen assay for p97 inhibitors: dose response biochemical high throughput screening assay to identify inhibitors of the C522A mutant p97 ATPase: synthesized compounds. [Related pubchem assays: 1481, 1517, 1551 ]
# [17] = molecular target: Transitional endoplasmic reticulum ATPase (Homo sapiens, UniProt P55072); test: Luminescence dose response biochemical high throughput screening assay for inhibitors of the p97 ATPase: synthesized compounds. [Related pubchem assays: 1481, 1517 ]
# [18] = molecular target: T6, Alkaline phosphatase, tissue-nonspecific isozyme (Homo sapiens, UniProt P05186); test: human TNAP enzyme inhibitors, SAR follow-up, biochemical, luminescent, dose response (AID 1056)
# T6 sequence (P05186 whole entry): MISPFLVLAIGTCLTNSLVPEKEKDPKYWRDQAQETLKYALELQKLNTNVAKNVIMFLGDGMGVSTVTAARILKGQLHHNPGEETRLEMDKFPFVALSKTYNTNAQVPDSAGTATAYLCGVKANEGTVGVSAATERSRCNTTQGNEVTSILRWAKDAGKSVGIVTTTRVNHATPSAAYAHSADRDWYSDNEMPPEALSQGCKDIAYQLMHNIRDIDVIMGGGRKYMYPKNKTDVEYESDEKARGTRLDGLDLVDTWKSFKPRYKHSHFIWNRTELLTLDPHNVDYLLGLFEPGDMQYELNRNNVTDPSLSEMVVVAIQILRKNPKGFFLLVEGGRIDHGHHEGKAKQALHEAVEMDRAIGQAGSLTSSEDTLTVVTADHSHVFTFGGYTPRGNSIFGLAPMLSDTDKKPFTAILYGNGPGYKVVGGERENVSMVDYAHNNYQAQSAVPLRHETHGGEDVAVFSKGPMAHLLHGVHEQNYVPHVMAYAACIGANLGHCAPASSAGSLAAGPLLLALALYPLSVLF
# [19] = molecular target: Alkaline phosphatase, placental type (Homo sapiens, UniProt P05187); test: PLAP enzyme inhibitors, confirmation, biochemical, luminescence (AID 1512); type: functional
# [20] = molecular target: T7, Rac GTPase-activating protein 1 (Homo sapiens, UniProt Q9H0H5); test: MgcRacGAP GTPase-activating activity inhibitors, confirmation, biochemical, ADP Hunter fluorescence, primary and confirmatory (AID 624330); type: functional
# T7 sequence (Q9H0H5 whole entry): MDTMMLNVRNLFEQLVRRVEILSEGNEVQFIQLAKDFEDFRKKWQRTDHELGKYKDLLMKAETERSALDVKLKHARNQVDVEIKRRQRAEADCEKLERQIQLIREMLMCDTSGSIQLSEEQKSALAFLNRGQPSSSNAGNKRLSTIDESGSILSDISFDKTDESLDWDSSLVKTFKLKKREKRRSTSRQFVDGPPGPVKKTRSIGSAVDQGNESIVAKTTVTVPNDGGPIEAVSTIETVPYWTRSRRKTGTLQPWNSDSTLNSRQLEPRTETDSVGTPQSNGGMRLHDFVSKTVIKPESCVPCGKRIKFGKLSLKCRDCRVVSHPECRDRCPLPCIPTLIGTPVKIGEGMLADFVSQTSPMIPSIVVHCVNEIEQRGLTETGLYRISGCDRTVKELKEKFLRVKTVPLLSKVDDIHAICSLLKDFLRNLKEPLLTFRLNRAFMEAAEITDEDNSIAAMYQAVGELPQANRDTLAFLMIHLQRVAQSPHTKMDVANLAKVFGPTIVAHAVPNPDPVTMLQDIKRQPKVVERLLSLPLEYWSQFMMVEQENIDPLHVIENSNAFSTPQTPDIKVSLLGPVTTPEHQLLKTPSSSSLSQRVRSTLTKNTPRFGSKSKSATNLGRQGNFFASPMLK
# [21] = Luminescent dose response cell-based high throughput screening assay for inhibitors of the Janus kinase 2 mutant JAK2V617F. [Related pubchem assays: 1446 (Primary screen.), 1521 (Confirmation assay.), 1486 (Counter screen.)]; type: functional
# T1 sequence (P33261 whole entry): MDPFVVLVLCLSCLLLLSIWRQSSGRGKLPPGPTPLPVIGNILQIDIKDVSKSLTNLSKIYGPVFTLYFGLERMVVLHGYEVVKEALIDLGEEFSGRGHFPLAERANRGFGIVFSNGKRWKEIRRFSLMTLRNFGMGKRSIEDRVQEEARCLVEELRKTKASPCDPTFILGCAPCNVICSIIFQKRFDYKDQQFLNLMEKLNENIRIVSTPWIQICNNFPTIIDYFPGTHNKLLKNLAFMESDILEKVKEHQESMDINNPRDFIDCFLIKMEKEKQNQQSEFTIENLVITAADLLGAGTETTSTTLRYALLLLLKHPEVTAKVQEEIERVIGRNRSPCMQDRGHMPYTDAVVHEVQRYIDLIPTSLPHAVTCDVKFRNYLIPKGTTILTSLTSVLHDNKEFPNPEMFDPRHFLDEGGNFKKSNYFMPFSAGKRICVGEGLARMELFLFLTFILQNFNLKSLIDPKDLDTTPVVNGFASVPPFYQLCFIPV
# ADP-ribosylation factor GTPase-activating protein 1, sequence (Q62848 whole entry): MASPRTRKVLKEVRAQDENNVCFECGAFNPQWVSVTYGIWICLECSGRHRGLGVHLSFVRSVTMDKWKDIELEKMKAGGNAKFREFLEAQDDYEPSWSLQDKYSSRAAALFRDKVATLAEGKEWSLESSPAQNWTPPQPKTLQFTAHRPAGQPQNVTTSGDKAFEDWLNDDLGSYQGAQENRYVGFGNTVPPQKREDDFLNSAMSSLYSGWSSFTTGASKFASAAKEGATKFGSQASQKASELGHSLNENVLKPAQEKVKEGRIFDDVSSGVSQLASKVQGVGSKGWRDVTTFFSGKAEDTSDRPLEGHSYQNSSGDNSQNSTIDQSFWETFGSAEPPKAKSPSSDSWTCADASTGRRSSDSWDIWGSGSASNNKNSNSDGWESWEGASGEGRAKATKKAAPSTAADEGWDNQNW
# Glucose-6-phosphate 1-dehydrogenase, sequence (P11413 whole entry): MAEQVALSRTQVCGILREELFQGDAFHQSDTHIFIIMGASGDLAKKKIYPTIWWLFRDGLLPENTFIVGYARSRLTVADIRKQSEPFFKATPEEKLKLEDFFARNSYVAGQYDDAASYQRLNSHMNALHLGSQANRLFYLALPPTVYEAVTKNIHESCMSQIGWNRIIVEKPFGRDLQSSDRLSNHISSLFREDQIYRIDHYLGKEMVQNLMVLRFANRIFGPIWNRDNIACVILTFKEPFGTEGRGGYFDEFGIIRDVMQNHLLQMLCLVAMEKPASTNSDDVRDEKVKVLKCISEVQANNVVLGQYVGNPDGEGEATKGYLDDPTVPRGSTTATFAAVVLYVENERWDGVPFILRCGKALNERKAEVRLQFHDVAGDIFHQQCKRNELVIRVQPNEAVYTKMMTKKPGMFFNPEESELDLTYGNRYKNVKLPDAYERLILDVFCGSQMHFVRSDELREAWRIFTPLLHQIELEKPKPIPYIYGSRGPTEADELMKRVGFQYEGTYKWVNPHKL
# Photoreceptor-specific nuclear receptor, sequence (Q9Y5X4 whole entry): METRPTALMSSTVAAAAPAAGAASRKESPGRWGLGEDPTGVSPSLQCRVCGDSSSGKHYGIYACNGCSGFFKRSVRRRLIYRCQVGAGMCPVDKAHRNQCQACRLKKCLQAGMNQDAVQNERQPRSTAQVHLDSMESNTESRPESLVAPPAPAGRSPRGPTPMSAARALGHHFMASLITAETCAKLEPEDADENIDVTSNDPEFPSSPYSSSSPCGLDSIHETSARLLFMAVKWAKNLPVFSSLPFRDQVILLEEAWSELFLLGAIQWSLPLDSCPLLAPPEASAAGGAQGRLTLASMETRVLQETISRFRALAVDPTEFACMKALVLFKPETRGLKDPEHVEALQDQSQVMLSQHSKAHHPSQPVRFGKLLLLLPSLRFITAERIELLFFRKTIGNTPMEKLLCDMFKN
# Cytochrome P450 2C9, sequence (P11712 whole entry): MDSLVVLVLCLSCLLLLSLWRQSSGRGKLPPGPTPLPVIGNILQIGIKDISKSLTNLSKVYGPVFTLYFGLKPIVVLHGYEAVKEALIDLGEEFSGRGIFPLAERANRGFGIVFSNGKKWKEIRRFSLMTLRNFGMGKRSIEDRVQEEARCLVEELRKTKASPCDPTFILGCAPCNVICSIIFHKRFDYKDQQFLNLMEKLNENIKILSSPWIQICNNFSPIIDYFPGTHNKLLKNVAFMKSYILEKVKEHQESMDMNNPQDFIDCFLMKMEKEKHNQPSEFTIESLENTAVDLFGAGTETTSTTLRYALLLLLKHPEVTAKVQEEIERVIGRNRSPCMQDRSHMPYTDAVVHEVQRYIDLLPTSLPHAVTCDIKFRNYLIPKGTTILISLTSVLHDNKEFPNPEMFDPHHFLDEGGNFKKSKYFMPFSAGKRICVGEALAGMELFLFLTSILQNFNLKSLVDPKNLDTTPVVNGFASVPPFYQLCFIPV
# Transitional endoplasmic reticulum ATPase (Homo sapiens, UniProt P55072), sequence (P55072 whole entry): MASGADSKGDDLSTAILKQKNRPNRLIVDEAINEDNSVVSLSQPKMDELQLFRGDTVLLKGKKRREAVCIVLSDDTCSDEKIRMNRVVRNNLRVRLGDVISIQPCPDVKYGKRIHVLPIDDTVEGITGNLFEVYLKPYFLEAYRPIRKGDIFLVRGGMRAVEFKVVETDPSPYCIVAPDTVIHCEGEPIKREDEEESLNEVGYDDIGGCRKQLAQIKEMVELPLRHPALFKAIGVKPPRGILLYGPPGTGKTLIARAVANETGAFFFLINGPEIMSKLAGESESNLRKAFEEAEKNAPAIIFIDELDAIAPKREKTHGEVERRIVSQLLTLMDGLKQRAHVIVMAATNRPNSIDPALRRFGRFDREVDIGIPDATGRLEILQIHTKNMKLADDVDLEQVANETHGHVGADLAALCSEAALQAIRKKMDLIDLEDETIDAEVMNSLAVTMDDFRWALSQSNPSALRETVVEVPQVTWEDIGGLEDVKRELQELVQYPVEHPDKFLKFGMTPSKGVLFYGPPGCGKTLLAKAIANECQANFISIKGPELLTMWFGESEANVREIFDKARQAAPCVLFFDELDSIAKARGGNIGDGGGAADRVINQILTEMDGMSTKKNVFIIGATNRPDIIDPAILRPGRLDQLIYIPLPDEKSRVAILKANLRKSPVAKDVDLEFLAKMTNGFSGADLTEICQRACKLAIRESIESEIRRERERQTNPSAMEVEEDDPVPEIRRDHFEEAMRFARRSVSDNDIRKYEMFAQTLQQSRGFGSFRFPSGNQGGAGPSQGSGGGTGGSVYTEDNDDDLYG
# Transitional endoplasmic reticulum ATPase (Homo sapiens, UniProt P55072, C522A), sequence (P55072 2-806 C522A limits assumed): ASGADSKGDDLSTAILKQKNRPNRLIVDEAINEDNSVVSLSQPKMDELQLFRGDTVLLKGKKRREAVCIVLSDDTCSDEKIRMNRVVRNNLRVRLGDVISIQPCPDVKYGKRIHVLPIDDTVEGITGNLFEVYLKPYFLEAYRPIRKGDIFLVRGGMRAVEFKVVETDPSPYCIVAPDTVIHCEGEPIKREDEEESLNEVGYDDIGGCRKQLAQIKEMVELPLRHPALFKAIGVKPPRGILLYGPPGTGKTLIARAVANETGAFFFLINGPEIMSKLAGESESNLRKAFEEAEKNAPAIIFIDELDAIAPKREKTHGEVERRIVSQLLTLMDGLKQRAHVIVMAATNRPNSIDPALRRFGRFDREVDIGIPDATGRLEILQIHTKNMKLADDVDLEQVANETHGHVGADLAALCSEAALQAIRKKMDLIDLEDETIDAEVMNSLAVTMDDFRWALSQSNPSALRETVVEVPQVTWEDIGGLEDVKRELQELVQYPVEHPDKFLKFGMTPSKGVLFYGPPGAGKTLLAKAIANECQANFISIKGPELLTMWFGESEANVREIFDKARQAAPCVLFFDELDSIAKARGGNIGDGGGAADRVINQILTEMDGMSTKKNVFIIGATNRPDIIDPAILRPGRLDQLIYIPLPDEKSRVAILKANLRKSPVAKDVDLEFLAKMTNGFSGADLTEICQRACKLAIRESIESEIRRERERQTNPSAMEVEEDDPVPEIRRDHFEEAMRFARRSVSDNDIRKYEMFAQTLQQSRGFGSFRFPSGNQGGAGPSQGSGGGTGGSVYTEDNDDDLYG
# Alkaline phosphatase, placental type, sequence (P05187 whole entry): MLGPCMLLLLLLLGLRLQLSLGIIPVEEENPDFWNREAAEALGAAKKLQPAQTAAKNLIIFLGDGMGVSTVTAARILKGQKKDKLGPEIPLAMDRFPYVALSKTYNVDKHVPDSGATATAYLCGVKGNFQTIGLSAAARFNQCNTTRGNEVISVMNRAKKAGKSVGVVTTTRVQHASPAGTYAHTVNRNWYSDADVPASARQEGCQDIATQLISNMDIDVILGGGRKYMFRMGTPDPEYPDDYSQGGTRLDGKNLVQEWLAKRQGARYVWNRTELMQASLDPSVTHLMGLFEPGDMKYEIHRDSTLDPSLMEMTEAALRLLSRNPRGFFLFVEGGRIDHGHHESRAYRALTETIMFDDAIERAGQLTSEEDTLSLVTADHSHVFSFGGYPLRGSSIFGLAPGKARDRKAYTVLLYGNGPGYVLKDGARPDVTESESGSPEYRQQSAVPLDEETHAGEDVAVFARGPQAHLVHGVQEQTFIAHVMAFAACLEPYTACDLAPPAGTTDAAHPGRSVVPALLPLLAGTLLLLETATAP
# G-protein coupled receptor 55, sequence (Q9Y2T6 whole entry): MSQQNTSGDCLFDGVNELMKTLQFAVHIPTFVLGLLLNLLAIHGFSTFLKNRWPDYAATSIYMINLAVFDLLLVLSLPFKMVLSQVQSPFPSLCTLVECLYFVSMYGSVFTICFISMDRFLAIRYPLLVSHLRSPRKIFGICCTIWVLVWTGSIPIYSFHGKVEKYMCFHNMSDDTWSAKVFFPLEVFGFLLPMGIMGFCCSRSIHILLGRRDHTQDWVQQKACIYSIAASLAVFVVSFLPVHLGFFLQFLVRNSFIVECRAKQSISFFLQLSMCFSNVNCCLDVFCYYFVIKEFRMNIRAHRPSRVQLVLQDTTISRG
smiles,measurement,setting,value
CC(=O)Nc1ccc(Nc2cc(C(C)C)nc3c(-c4ccccc4)c(C)nn23)cc1,EC50,[1],> 32 µM (inactive)
same,CC50,Vero,> 100 µM (active)
same,EC50,[2],0.211 µM (active)
same,AC50,[3],3.84 µM (active)
same,EC50,[4],10.4 µM (active)
CC(=O)c1ccc(C2C=CC(Oc3ccc(-c4ccccc4)cc3)C(CO)O2)cc1 (stereo unspecified),AC50,Cytochrome P450 2C19 [5],0.794 µM (inconclusive)
O=C(Nc1ccc(-c2cc3ccccc3oc2=O)c(Cl)c1)c1cccnc1,AC50,Cytochrome P450 2C9,inconclusive
same,IC50,[6],> 39.8 µM (not active)
same,IC50,[7],> 39.8 µM (not active)
same,IC50,[8],17.9 µM (inactive)
same,AC50,Cytochrome P450 2C19 [9],inconclusive
CC(Cc1ccc(O)c(O)c1)C(C)Cc1ccc(O)c(O)c1 (stereo unspecified) [NORDIHYDROGUAIARETIC ACID],IC50,Large T antigen,21.9 µM (active)
same,EC50,[10],8.75 µM (active)
same,EC50,[11],2.32 µM (active)
same,EC50,[12],9.48 µM (active)
same,IC50,[13],> 80 µM (inactive)
same,EC50,[14],11.2 µM (active)
same,EC50,[15],26.1 µM (active)
same,IC50,14-3-3 protein gamma,> 50 µM (not active)
same,IC50,Estrogen receptor,22.2 µM (active)
Cc1cc(-c2csc(Nc3ccc(C#N)cc3)n2)c(C)n1C,IC50,[16],> 50 µM (not active)
same,IC50,[17],> 50 µM (not active)
O=C(CSc1nnnn1-c1ccc(F)cc1)c1ccc(O)c(O)c1,IC50,[18],5.98 µM (active)
same,IC50,[19],1.89 µM (active)
same,IC50,[20],80.6 µM (active)
same,IC50,[21],2.16 µM (active)
